Source: US20260297081A1, “COMPOUNDS AND METHODS OF TREATING CANCERS” (Cullgen Inc., priority 2023, published 2026)

Experiments:
MCF7 cells = test: Anti-proliferation (viability) of MCF7 cells (Table 7, FIG. 2B); format: cell-based; conditions: Homo sapiens, MCF7, MCF7 cells, 3-6 days, 10-point serial dilution; read-out: GI IC50 in MCF-7
CDK4 = CDK4 (Homo sapiens, UniProt P11802+Q16531); test: HiBiT detection of HiBiT-tagged CDK4 protein level in MCF7 cells, 16 hours (Table 8); format: cell-based; design: expressed in transfected cells; host or cells: MCF7; conditions: MCF7 cells stably expressing HiBiT tagged target proteins; for activity at 0.01 µM: 10 nM, read-out: % CDK4 Relative Level (10 nM); for activity at 0.1 µM: 100 nM, read-out: % CDK4 Relative Level (100 nM)
Chain of CDK4 (P11802 whole entry): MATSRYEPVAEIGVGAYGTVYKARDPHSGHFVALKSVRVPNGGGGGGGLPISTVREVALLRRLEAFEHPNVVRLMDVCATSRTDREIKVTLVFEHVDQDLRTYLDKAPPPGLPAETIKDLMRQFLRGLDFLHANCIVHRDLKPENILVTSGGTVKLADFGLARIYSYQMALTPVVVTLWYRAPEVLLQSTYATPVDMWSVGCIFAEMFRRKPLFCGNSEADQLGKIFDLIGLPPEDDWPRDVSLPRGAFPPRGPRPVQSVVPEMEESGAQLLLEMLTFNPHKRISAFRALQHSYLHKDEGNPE
Chain of CDK4 (P24385 whole entry partner): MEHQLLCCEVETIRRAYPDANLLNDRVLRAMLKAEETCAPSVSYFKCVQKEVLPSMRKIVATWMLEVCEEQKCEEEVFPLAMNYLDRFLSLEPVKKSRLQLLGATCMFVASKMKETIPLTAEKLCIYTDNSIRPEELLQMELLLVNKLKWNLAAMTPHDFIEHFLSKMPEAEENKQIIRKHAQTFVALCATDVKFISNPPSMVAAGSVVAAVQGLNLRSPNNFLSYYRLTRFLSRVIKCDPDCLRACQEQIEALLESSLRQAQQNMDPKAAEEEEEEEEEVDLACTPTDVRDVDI
Chain of CDK4 (Q16531 2-1140 limits assumed): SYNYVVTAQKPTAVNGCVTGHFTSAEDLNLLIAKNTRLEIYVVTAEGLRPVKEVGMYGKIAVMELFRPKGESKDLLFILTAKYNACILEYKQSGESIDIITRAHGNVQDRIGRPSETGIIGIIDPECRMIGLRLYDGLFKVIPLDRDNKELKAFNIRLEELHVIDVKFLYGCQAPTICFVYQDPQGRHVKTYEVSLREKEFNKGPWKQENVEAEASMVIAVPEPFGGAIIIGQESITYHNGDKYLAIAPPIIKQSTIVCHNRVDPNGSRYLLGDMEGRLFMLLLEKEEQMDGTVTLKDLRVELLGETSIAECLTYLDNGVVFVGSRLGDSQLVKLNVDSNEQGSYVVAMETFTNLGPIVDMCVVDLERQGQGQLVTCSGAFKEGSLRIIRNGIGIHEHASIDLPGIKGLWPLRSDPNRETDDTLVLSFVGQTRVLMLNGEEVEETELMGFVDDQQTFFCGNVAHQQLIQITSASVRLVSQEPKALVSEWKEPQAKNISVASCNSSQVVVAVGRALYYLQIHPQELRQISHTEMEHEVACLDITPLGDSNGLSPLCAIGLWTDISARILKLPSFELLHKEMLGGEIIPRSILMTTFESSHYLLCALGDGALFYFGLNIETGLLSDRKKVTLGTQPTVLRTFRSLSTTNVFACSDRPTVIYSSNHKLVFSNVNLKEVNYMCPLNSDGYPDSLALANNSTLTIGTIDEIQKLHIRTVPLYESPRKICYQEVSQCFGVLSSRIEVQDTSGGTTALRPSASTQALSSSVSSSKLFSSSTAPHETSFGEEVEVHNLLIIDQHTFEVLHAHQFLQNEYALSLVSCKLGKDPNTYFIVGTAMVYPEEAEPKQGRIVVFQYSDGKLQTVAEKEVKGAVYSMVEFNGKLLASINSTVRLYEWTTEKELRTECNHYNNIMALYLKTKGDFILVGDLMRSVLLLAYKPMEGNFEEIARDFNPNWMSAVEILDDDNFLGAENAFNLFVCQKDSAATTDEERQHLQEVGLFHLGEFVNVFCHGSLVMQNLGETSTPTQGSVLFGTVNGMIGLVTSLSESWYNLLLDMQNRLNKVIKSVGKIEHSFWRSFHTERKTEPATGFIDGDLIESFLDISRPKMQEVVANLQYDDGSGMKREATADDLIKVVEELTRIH
Procedure: HiBiT detection system quantitatively measures total amounts of HiBiT-tagged proteins using a luminescent based method. MCF7 cells stably expressing HiBiT tagged target proteins were treated with heterobifunctional compounds at indicated concentrations for 16 hours, then lysed with Nano-Glo HiBiT Lytic detection reagents.

| SMILES | IC50 (MCF7 cells) [nM] | activity at 0.01 µM (CDK4) [%] | activity at 0.1 µM (CDK4) [%] |
| --- | --- | --- | --- |
| CC(=O)c1c(C)c2cnc(Nc3ccc(CN4CCN(CC(=O)N5CCC6(CCC(Nc7nc(C(C)C)ccc7C(=O)Nc7ccc(N(C)C)nn7)C6)C5)CC4)cn3)nc2n(C2CCCC2)c1=O (stereo not drawn) [CPD-583, 2-((2-(2-(4-((6-((6-acetyl-8-cyclopentyl-5-methyl-7-oxo-7,8-dihydropyrido[2,3-d]pyrimidin-2-yl)amino)pyridin-3-yl)methyl)piperazin-1-yl)acetyl)-2-azaspiro[4.4]nonan-7-yl)amino)-N-(6-(dimethylamino)pyridazin-3-yl)-6-isopropylnicotinamide] | < 50 | 55 to 85 | 55 to 85 |
| CC(=O)c1c(C)c2cnc(Nc3ccc(CN4CCN(CC(=O)NC5CC6(C5)CC(Nc5nc(NC(C)C)ccc5C(=O)Nc5cc7n(n5)CCC7)C6)CC4)cn3)nc2n(C2CCCC2)c1=O (stereo not drawn) [CPD-584, 2-((6-(2-(4-((6-((6-acetyl-8-cyclopentyl-5-methyl-7-oxo-7,8-dihydropyrido[2,3-d]pyrimidin-2-yl)amino)pyridin-3-yl)methyl)piperazin-1-yl)acetamido)spiro[3.3]heptan-2-yl)amino)-N-(5,6-dihydro-4H-pyrrolo[1,2-b]pyrazol-2-yl)-6-(isopropylamino) nicotinamide] | < 50 | 55 to 85 | 55 to 85 |
| CC(=O)c1c(C)c2cnc(Nc3ccc(CN4CCN(C(C)C(=O)NC5CC6(C5)CC(Nc5nc(NC(C)C)ccc5C(=O)Nc5ccc(N(C)C)nn5)C6)CC4)cn3)nc2n(C2CCCC2)c1=O (stereo not drawn) [CPD-585, 2-((6-(2-(4-((6-((6-acetyl-8-cyclopentyl-5-methyl-7-oxo-7,8-dihydropyrido[2,3-d]pyrimidin-2-yl)amino)pyridin-3-yl)methyl)piperazin-1-yl)propanamido)spiro[3.3]heptan-2-yl)amino)-N-(6-(dimethylamino)pyridazin-3-yl)-6-(isopropylamino)nicotinamide] | < 50 | 55 to 85 | 55 to 85 |
| CC(=O)c1c(C)c2cnc(Nc3ccc(C(C)N4CCN(CC(=O)NC5CC6(C5)CC(Nc5nc(NC(C)C)ccc5C(=O)Nc5ccc(N(C)C)nn5)C6)CC4)cn3)nc2n(C2CCCC2)c1=O (stereo not drawn) [CPD-586, 2-((6-(2-(4-(1-(6-((6-acetyl-8-cyclopentyl-5-methyl-7-oxo-7,8-dihydropyrido[2,3-d]pyrimidin-2-yl)amino)pyridin-3-yl)ethyl)piperazin-1-yl)acetamido)spiro[3.3]heptan-2-yl)amino)-N-(6-(dimethylamino)pyridazin-3-yl)-6-(isopropylamino)nicotinamide] | < 50 | 55 to 85 | 55 to 85 |
| CC(=O)c1c(C)c2cnc(Nc3ccc(N4CCN(C5CCN(C(=O)C67CC(Nc8nc(NC(C)C)ccc8C(=O)Nc8cc(C)n(C)n8)(C6)C7)C5)CC4)cn3)nc2n(C2CCCC2)c1=O (stereo not drawn) [CPD-587, 2-((3-(3-(4-(6-((6-acetyl-8-cyclopentyl-5-methyl-7-oxo-7,8-dihydropyrido[2,3-d]pyrimidin-2-yl)amino)pyridin-3-yl)piperazin-1-yl)pyrrolidine-1-carbonyl)bicyclo[1.1.1]pentan-1-yl)amino)-N-(1,5-dimethyl-1H-pyrazol-3-yl)-6-(isopropylamino)nicotinamide] | < 50 | 55 to 85 | 55 to 85 |
| CC(=O)c1c(C)c2cnc(Nc3ccc(N4CCN(C5CCN(C(=O)C67CC(Nc8nc(NC(C)C)ccc8C(=O)Nc8cn(C)c(C9CC9)n8)(C6)C7)C5)CC4)cn3)nc2n(C2CCCC2)c1=O (stereo not drawn) [CPD-588, 2-((3-(3-(4-(6-((6-acetyl-8-cyclopentyl-5-methyl-7-oxo-7,8-dihydropyrido[2,3-d]pyrimidin-2-yl)amino)pyridin-3-yl)piperazin-1-yl)pyrrolidine-1-carbonyl)bicyclo[1.1.1]pentan-1-yl)amino)-N-(2-cyclopropyl-1-methyl-1H-imidazol-4-yl)-6-(isopropylamino)nicotinamide] | < 50 | 55 to 85 | 55 to 85 |
| CC(=O)c1c(C)c2cnc(Nc3ccc(N4CCN(C5CCN(C(=O)C67CC(Nc8nc(C)ccc8C(=O)Nc8ccc(N(C)C)nn8)(C6)C7)C5)CC4)cn3)nc2n(C2CCCC2)c1=O (stereo not drawn) [CPD-590, 2-((3-(3-(4-(6-((6-acetyl-8-cyclopentyl-5-methyl-7-oxo-7,8-dihydropyrido[2,3-d]pyrimidin-2-yl)amino)pyridin-3-yl)piperazin-1-yl)pyrrolidine-1-carbonyl)bicyclo[1.1.1]pentan-1-yl)amino)-N-(6-(dimethylamino)pyridazin-3-yl)-6-methylnicotinamide] | < 50 | 55 to 85 | 55 to 85 |
| CC(=O)c1c(C)c2cnc(Nc3ccc(N4CCN(C5CCN(C(=O)C67CC(Nc8nc(NC(C)C)ccc8C(=O)Nc8cc(C)on8)(C6)C7)C5)CC4)cn3)nc2n(C2CCCC2)c1=O (stereo not drawn) [CPD-591, 2-((3-(3-(4-(6-((6-acetyl-8-cyclopentyl-5-methyl-7-oxo-7,8-dihydropyrido[2,3-d]pyrimidin-2-yl)amino)pyridin-3-yl)piperazin-1-yl)pyrrolidine-1-carbonyl)bicyclo[1.1.1]pentan-1-yl)amino)-6-(isopropylamino)-N-(5-methylisoxazol-3-yl)nicotinamide] | < 50 | 55 to 85 | 55 to 85 |
| CC(=O)c1c(C)c2cnc(Nc3ccc(CN4CCN(CC(=O)N(C)C5CC6(CC(Nc7nc(NC(C)C)ccc7C(=O)Nc7ccc(N(C)C)nn7)C6)C5)CC4)cn3)nc2n(C2CCCC2)c1=O (stereo not drawn) [CPD-594, 2-((6-(2-(4-((6-((6-acetyl-8-cyclopentyl-5-methyl-7-oxo-7,8-dihydropyrido[2,3-d]pyrimidin-2-yl)amino)pyridin-3-yl)methyl)piperazin-1-yl)-N-methylacetamido)spiro[3.3]heptan-2-yl)amino)-N-(6-(dimethylamino)pyridazin-3-yl)-6-(isopropylamino)nicotinamide] | < 50 | 55 to 85 | 55 to 85 |
| CC(=O)c1c(C)c2cnc(Nc3ccc(CN4CCC(N(C)C(=O)C5CC6(CC(Nc7nc(NC(C)C)ccc7C(=O)Nc7ccc(N(C)C)nn7)C6)C5)CC4)cn3)nc2n(C2CCCC2)c1=O (stereo not drawn) [CPD-595, 2-((6-((1-((6-((6-acetyl-8-cyclopentyl-5-methyl-7-oxo-7,8-dihydropyrido[2,3-d]pyrimidin-2-yl)amino)pyridin-3-yl)methyl)piperidin-4-yl)(methyl)carbamoyl)spiro[3.3]heptan-2-yl)amino)-N-(6-(dimethylamino)pyridazin-3-yl)-6-(isopropylamino)nicotinamide] | < 50 | > 85 | 55 to 85 |
| CC(=O)c1c(C)c2cnc(Nc3ccc(CN4CCC(CC(=O)NC5CC6(C5)CC(Nc5nc(NC(C)C)ccc5C(=O)Nc5ccc(N(C)C)nn5)C6)C4)cn3)nc2n(C2CCCC2)c1=O (stereo not drawn) [CPD-596, 2-((6-(2-(1-((6-((6-acetyl-8-cyclopentyl-5-methyl-7-oxo-7,8-dihydropyrido[2,3-d]pyrimidin-2-yl)amino)pyridin-3-yl)methyl)pyrrolidin-3-yl)acetamido)spiro[3.3]heptan-2-yl)amino)-N-(6-(dimethylamino)pyridazin-3-yl)-6-(isopropylamino)nicotinamide] | > 100 | 55 to 85 | > 85 |
| CCc1ccc(C(=O)Nc2ccc(N(C)C)nn2)c(N[C@H]2CC[C@H](C(=O)N3CCC(N4CCN(C5CCC(Nc6ncc7c(C)c(C(C)=O)c(=O)n(C8CCCC8)c7n6)CC5)CC4)C3)CC2)n1 (stereo partly drawn) [CPD-597, 2-((trans-4-(3-(4-(4-((6-acetyl-8-cyclopentyl-5-methyl-7-oxo-7,8-dihydropyrido[2,3-d]pyrimidin-2-yl)amino)cyclohexyl)piperazin-1-yl)pyrrolidine-1-carbonyl)cyclohexyl)amino)-N-(6-(dimethylamino)pyridazin-3-yl)-6-ethylnicotinamide] | < 50 | > 85 | 55 to 85 |
| CC(=O)c1c(C)c2cnc(Nc3ccc(CC4CCN(CC(=O)NC5CC6(C5)CC(Nc5nc(NC(C)C)ccc5C(=O)Nc5ccc(N(C)C)nn5)C6)CC4)cn3)nc2n(C2CCCC2)c1=O (stereo not drawn) [CPD-599, 2-((6-(2-(4-((6-((6-acetyl-8-cyclopentyl-5-methyl-7-oxo-7,8-dihydropyrido[2,3-d]pyrimidin-2-yl)amino)pyridin-3-yl)methyl)piperidin-1-yl)acetamido)spiro[3.3]heptan-2-yl)amino)-N-(6-(dimethylamino)pyridazin-3-yl)-6-(isopropylamino)nicotinamide] | < 50 | 55 to 85 | 55 to 85 |
| CNc1ccc(C(=O)Nc2ccc(N(C)C)nn2)c(NCCC(=O)N2CCN(Cc3ccc(Nc4ncc(F)c(-c5cc(F)c6nc(C)n(C(C)C)c6c5)n4)nc3)CC2)n1 [CPD-600, N-(6-(dimethylamino)pyridazin-3-yl)-2-((3-(4-((6-((5-fluoro-4-(4-fluoro-1-isopropyl-2-methyl-1H-benzo[d]imidazol-6-yl)pyrimidin-2-yl)amino)pyridin-3-yl)methyl)piperazin-1-yl)-3-oxopropyl)amino)-6-(methylamino)nicotinamide] | > 100 | 55 to 85 | 55 to 85 |
| CNc1ccc(C(=O)Nc2ccc(N(C)C)nn2)c(NCCCC(=O)N2CCN(Cc3ccc(Nc4ncc(F)c(-c5cc(F)c6nc(C)n(C(C)C)c6c5)n4)nc3)CC2)n1 [CPD-601, N-(6-(dimethylamino)pyridazin-3-yl)-2-((4-(4-((6-((5-fluoro-4-(4-fluoro-1-isopropyl-2-methyl-1H-benzo[d]imidazol-6-yl)pyrimidin-2-yl)amino)pyridin-3-yl)methyl)piperazin-1-yl)-4-oxobutyl)amino)-6-(methylamino)nicotinamide] | > 100 | 55 to 85 | 55 to 85 |
